For one test, the system named is Rickettsia prowazekii. Description: Inhibition of Rickettsia prowazekii Methionine aminopeptidase 1 at 10 uM relative to control.
The nature of test [1]: Inhibition of Rickettsia prowazekii Methionine aminopeptidase 1. It counts as single protein.

For 13 compounds, inhibition and IC50 results are on record in ChEMBL document CHEMBL5257084, “Novel inhibitors of Rickettsia prowazekii methionine aminopeptidase from the Malaria Box” (Bioorg Med Chem Lett, 2023).

What is called inhibition is how much of the control response was suppressed. In general, IC50 refers to the concentration that gives 50% inhibition. Lower therefore signals greater potency. As to `O=C(NCC(c1ccsc1)N1CCCCCC1)c1ccc(C(F)(F)F)cc1` (stereo not given), in the test on Rickettsia prowazekii, the inhibition is greater than 50%. In addition, 15 µM corresponded to half-maximal inhibition in test [1] (IC50). Compound `COc1ccc(C2=C(c3ccc(OC)cc3)C3(c4ccccc4)C(=O)C2(c2ccccc2)C2C(=O)N(c4ccc(C)cc4)C(=O)C23)cc1` (stereo not given) gave an inhibition in the test on Rickettsia prowazekii greater than 50%. The IC50 in test [1] stood at 4 µM. Compound `CSC1=N/C(=N\c2c(C)cccc2C)C2(CCC(C(C)(C)C)CC2)N1c1ccc(Cl)cc1` (stereo not given) gave an inhibition in the test with Rickettsia prowazekii greater than 50%. This compound also had an IC50 in test [1] of 9 µM. Regarding `COc1ccc(/C=C2\SC(=N)N(c3ccccc3OC)C2=O)cc1`, the inhibition in the test on Rickettsia prowazekii was greater than 50%. In addition, half-maximal inhibition in test [1] (IC50) was put at 4.4 µM. For `COc1cccc(NC(=O)[C@H](C(C)C)n2c(=O)[nH]c3ccccc3c2=O)c1`, in that order: greater than 50% and 22 µM. Turning to `Cc1ccc(N2C3c4ccccc4N(S(=O)(=O)c4ccc(C)cc4)C2c2ccccc2N3S(=O)(=O)c2ccc(C)cc2)cc1`, the inhibition with Rickettsia prowazekii was greater than 50%. In test [1], this compound displayed a half-inhibitory concentration (IC50) of 0.8 µM. For `COc1ccc(-c2c(C)nn3c(N)c(C#N)cnc23)cc1OC`, in that order: greater than 50% and 9 µM. The matching figures for `c1ccc(Cn2c(/N=N/c3c(Nc4ccccc4)ccc4ccccc34)nc3ccccc32)cc1`: greater than 50% and 1.9 µM. Regarding `O=C(NC(c1ccccc1)c1ccc2cccnc2c1O)c1ccccc1` (stereo not given), the inhibition in the test with Rickettsia prowazekii is greater than 50%. This compound also displayed an IC50 in test [1] of 12 µM. The matching figures for `CCCc1c(CC)c(=N)c2ccccc2n1C`: greater than 50% and 1.6 µM. The matching figures for `CC(C)OCc1cc(CN2CCN(c3cccc(Cl)c3)CC2)c(O)c2ncccc12`: greater than 50% and 3.8 µM. In turn, `CCn1c(CN2CCN(Cc3ccccc3)CC2)nc2cc(NC(=O)c3cccs3)ccc21` came in with an inhibition in the test on Rickettsia prowazekii greater than 50%. Moreover, in test [1], the 50% inhibitory concentration (IC50) came to 9 µM. Consider `O=C(O)c1ccc(-c2ccccc2Cl)o1`, for which, in test [1], half-maximal inhibition (IC50) was put at 2.4 µM.
